{"source": "ChEMBL document CHEMBL5113409", "about": "“Design and synthesis of proteolysis targeting chimeras (PROTACs) as an EGFR degrader based on CO-1686” (Eur J Med Chem, 2022)", "key": {"[1]": {"tested_on": "Protein cereblon/Epidermal growth factor receptor (Homo sapiens), P00533+Q96SW2 [L858R,T790M]", "experiment": "Protac activity at CRBN/EGFR L858R/T790M mutant in human NCI-H1975 cells assessed as L858R/T790M mutant degradation at 3 uM incubated for 48 hrs by Western blot analysis", "type": "cell-based"}, "[2]": {"tested_on": "Protein cereblon/Epidermal growth factor receptor (Homo sapiens), P00533+Q96SW2 [L858R,T790M]", "experiment": "(§1) Protac activity at CRBN/EGFR L858R/T790M mutant in human NCI-H1975 cells assessed as L858R/T790M mutant degradation incubated for 48 hrs by Western blot analysis", "type": "cell-based", "conditions": "DDE = dose-dependent effect"}, "[3]": {"molecular_target": "Protein cereblon/Epidermal growth factor receptor (Homo sapiens, UniProt P00533+Q96SW2, T790M/L858R)", "experiment": "as §1", "type": "cell-based"}, "[4]": {"tested_on": "Protein cereblon/Epidermal growth factor receptor (Homo sapiens), P00533+Q96SW2 [L858R,T790M]", "experiment": "Protac activity at CRBN/EGFR L858R/T790M mutant in human NCI-H1975 cells assessed as L858R/T790M mutant degradation at 0.3 uM incubated up to 36 hrs by Western blot analysis", "type": "cell-based", "conditions": "TDE = time-dependent effect"}, "[5]": {"tested_on": "Protein cereblon/Epidermal growth factor receptor (Homo sapiens), P00533+Q96SW2 [L858R,T790M]", "experiment": "Protac activity at CRBN/EGFR L858R/T790M mutant in human NCI-H1975 cells assessed as L858R/T790M mutant degradation incubated for 48 hrs by Western blot analysis relative to untreated control", "type": "cell-based"}, "[6]": {"tested_on": "NCI-H1975", "experiment": "Induction of apoptosis in human NCI-H1975 cells incubated for 48 hrs by Annexin-V/propidium iodide staining based biparametric cytofluorometric assay", "type": "functional, cell-based", "conditions": "DDE = dose-dependent effect"}, "[7]": {"tested_on": "NCI-H1975", "experiment": "Induction of apoptosis in human NCI-H1975 cells assessed as viable cells level at 0.25 uM incubated for 48 hrs by Annexin-V/propidium iodide staining based biparametric cytofluorometric assay (reference value: 93.9%)", "type": "functional"}, "[8]": {"tested_on": "NCI-H1975", "experiment": "Induction of apoptosis in human NCI-H1975 cells assessed as early apoptosis cells level at 0.25 uM incubated for 48 hrs by Annexin-V/propidium iodide staining based biparametric cytofluorometric assay (reference value: 2.26%)", "type": "functional"}, "[9]": {"tested_on": "NCI-H1975", "experiment": "Induction of apoptosis in human NCI-H1975 cells assessed as late apoptosis cells level at 0.25 uM incubated for 48 hrs by Annexin-V/propidium iodide staining based biparametric cytofluorometric assay (reference value: 2.46%)", "type": "functional"}, "[10]": {"tested_on": "NCI-H1975", "experiment": "Induction of apoptosis in human NCI-H1975 cells assessed as viable cells level at 0.5 uM incubated for 48 hrs by Annexin-V/propidium iodide staining based biparametric cytofluorometric assay (reference value: 93.9%)", "type": "functional"}, "[11]": {"tested_on": "NCI-H1975", "experiment": "Induction of apoptosis in human NCI-H1975 cells assessed as early apoptosis cells level at 0.5 uM incubated for 48 hrs by Annexin-V/propidium iodide staining based biparametric cytofluorometric assay (reference value: 2.26%)", "type": "functional"}, "[12]": {"tested_on": "NCI-H1975", "experiment": "Induction of apoptosis in human NCI-H1975 cells assessed as late apoptosis cells level at 0.5 uM incubated for 48 hrs by Annexin-V/propidium iodide staining based biparametric cytofluorometric assay (reference value: 2.46%)", "type": "functional"}, "[13]": {"tested_on": "NCI-H1975", "experiment": "Induction of apoptosis in human NCI-H1975 cells assessed as necrosis cells level at 0.5 uM incubated for 48 hrs by Annexin-V/propidium iodide staining based biparametric cytofluorometric assay (reference value: 2.46%)", "type": "functional"}, "[14]": {"tested_on": "NCI-H1975", "experiment": "Induction of apoptosis in human NCI-H1975 cells assessed as viable cells level at 1 uM incubated for 48 hrs by Annexin-V/propidium iodide staining based biparametric cytofluorometric assay (reference value: 93.9%)", "type": "functional"}, "[15]": {"tested_on": "NCI-H1975", "experiment": "Induction of apoptosis in human NCI-H1975 cells assessed as early apoptosis cells level at 1 uM incubated for 48 hrs by Annexin-V/propidium iodide staining based biparametric cytofluorometric assay (reference value: 2.26%)", "type": "functional"}, "[16]": {"tested_on": "NCI-H1975", "experiment": "Induction of apoptosis in human NCI-H1975 cells assessed as late apoptosis cells level at 1 uM incubated for 48 hrs by Annexin-V/propidium iodide staining based biparametric cytofluorometric assay (reference value: 2.46%)", "type": "functional"}, "[17]": {"tested_on": "NCI-H1975", "experiment": "Induction of apoptosis in human NCI-H1975 cells assessed as necrosis cells level at 1 uM incubated for 48 hrs by Annexin-V/propidium iodide staining based biparametric cytofluorometric assay (reference value: 2.46%)", "type": "functional"}, "[18]": {"tested_on": "NCI-H1975", "experiment": "Induction of cell cycle arrest in human NCI-H1975 cells assessed as accumulation at G0/G1 phase at 0.25 uM incubated for 48 hrs by propidium iodide staining based flow cytometry (reference value: 59.18%)", "type": "functional"}, "[19]": {"tested_on": "NCI-H1975", "experiment": "Induction of cell cycle arrest in human NCI-H1975 cells assessed as accumulation at G2/M phase at 0.25 uM incubated for 48 hrs by propidium iodide staining based flow cytometry (reference value: 3.68%)", "type": "functional"}, "[20]": {"tested_on": "NCI-H1975", "experiment": "Induction of cell cycle arrest in human NCI-H1975 cells assessed as accumulation at S phase at 0.25 uM incubated for 48 hrs by propidium iodide staining based flow cytometry (reference value: 37.13%)", "type": "functional"}, "[21]": {"tested_on": "NCI-H1975", "experiment": "Induction of cell cycle arrest in human NCI-H1975 cells assessed as accumulation at G0/G1 phase at 0.5 uM incubated for 48 hrs by propidium iodide staining based flow cytometry (reference value: 59.18%)", "type": "functional"}, "[22]": {"tested_on": "NCI-H1975", "experiment": "Induction of cell cycle arrest in human NCI-H1975 cells assessed as accumulation at G2/M phase at 0.5 uM incubated for 48 hrs by propidium iodide staining based flow cytometry (reference value: 3.68%)", "type": "functional"}, "[23]": {"tested_on": "NCI-H1975", "experiment": "Induction of cell cycle arrest in human NCI-H1975 cells assessed as accumulation at S phase at 0.5 uM incubated for 48 hrs by propidium iodide staining based flow cytometry (reference value: 37.13%)", "type": "functional"}, "[24]": {"tested_on": "NCI-H1975", "experiment": "Induction of cell cycle arrest in human NCI-H1975 cells assessed as accumulation at G0/G1 phase at 1 uM incubated for 48 hrs by propidium iodide staining based flow cytometry (reference value: 59.18%)", "type": "functional"}, "[25]": {"tested_on": "NCI-H1975", "experiment": "Induction of cell cycle arrest in human NCI-H1975 cells assessed as accumulation at G2/M phase at 1 uM incubated for 48 hrs by propidium iodide staining based flow cytometry (reference value: 3.68%)", "type": "functional"}, "[26]": {"tested_on": "NCI-H1975", "experiment": "Induction of cell cycle arrest in human NCI-H1975 cells assessed as accumulation at S phase at 1 uM incubated for 48 hrs by propidium iodide staining based flow cytometry (reference value: 37.13%)", "type": "functional"}, "[27]": {"tested_on": "A549", "experiment": "Anti-proliferative activity against human A549 cells assessed as reduction in cell proliferation incubated for 72 hrs by MTT assay", "type": "functional, cell-based", "conditions": "A549, 72 h"}, "[28]": {"tested_on": "PC-9", "experiment": "Anti-proliferative activity against human PC-9 cells assessed as reduction in cell proliferation incubated for 72 hrs by MTT assay", "type": "functional, cell-based", "conditions": "PC-9, 72 h"}, "[29]": {"tested_on": "NCI-H1975", "experiment": "Anti-proliferative activity against human NCI-H1975 cells assessed as reduction in cell proliferation incubated for 72 hrs by MTT assay", "type": "functional, cell-based", "conditions": "NCI-H1975, 72 h"}, "[30]": {"molecular_target": "Epidermal growth factor receptor (Homo sapiens, UniProt P00533)", "experiment": "Inhibition of wild type EGFR (unknown origin) incubated for 10 mins by HTRF KinEASE-TK assay"}, "[31]": {"molecular_target": "Epidermal growth factor receptor (Homo sapiens, UniProt P00533, L858R/T790M)", "experiment": "Inhibition of EGFR L858R/T790M mutant (unknown origin) incubated for 35 mins by HTRF KinEASE-TK assay"}, "[32]": {"species_on_record": "Homo sapiens", "experiment": "Selectivity index, ratio of IC50 for wild type EGFR (unknown origin) to IC50 for Protein cereblon/Epidermal growth factor receptor L858R/T790M mutant"}}, "note": "Active and inactive are the calls of the source. The rule behind the calls is not given here.", "data": [{"smiles": "C=CC(=O)Nc1cccc(Nc2nc(Nc3ccc(N4CCN(CC(=O)NCCNc5cccc6c5C(=O)N(C5CCC(=O)NC5=O)C6=O)CC4)cc3OC)ncc2C(F)(F)F)c1", "note": "(configuration not stated)", "values": [{"measurement": "Activity", "setting": "[1]", "result": "Active"}, {"measurement": "Activity", "setting": "[2]", "result": "Dde"}, {"measurement": "DC50", "setting": "[3]", "result": 356, "unit": "nM"}, {"measurement": "Activity", "setting": "[4]", "result": "Tde"}, {"measurement": "Emax", "setting": "[5]", "result": 83, "unit": "%"}, {"measurement": "Activity", "setting": "[6]", "result": "Dde"}, {"measurement": "Activity", "setting": "[7]", "result": 89.7, "unit": "%"}, {"measurement": "Activity", "setting": "[8]", "result": 2.78, "unit": "%"}, {"measurement": "Activity", "setting": "[9]", "result": 6.07, "unit": "%"}, {"measurement": "Activity", "setting": "[10]", "result": 73.3, "unit": "%"}, {"measurement": "Activity", "setting": "[11]", "result": 6.16, "unit": "%"}, {"measurement": "Activity", "setting": "[12]", "result": 18.3, "unit": "%"}, {"measurement": "Activity", "setting": "[13]", "result": 2.22, "unit": "%"}, {"measurement": "Activity", "setting": "[14]", "result": 58, "unit": "%"}, {"measurement": "Activity", "setting": "[15]", "result": 6.63, "unit": "%"}, {"measurement": "Activity", "setting": "[16]", "result": 39.9, "unit": "%"}, {"measurement": "Activity", "setting": "[17]", "result": 4.71, "unit": "%"}, {"measurement": "Activity", "setting": "[18]", "result": 72.1, "unit": "%"}, {"measurement": "Activity", "setting": "[19]", "result": 4.01, "unit": "%"}, {"measurement": "Activity", "setting": "[20]", "result": 23.89, "unit": "%"}, {"measurement": "Activity", "setting": "[21]", "result": 73.71, "unit": "%"}, {"measurement": "Activity", "setting": "[22]", "result": 3.72, "unit": "%"}, {"measurement": "Activity", "setting": "[23]", "result": 22.57, "unit": "%"}, {"measurement": "Activity", "setting": "[24]", "result": 77.8, "unit": "%"}, {"measurement": "Activity", "setting": "[25]", "result": 4.8, "unit": "%"}, {"measurement": "Activity", "setting": "[26]", "result": 17.39, "unit": "%"}, {"measurement": "IC50", "setting": "[27]", "result": "> 100000", "unit": "nM"}, {"measurement": "IC50", "setting": "[28]", "result": 750, "unit": "nM"}, {"measurement": "IC50", "setting": "[29]", "result": 240, "unit": "nM"}, {"measurement": "IC50", "setting": "[30]", "result": 839, "unit": "nM"}, {"measurement": "IC50", "setting": "[31]", "result": 43.1, "unit": "nM"}, {"measurement": "Ratio IC50", "setting": "[32]", "result": 19}]}]}
